In patent US10941180B2, “Peptoid compound, and derivative, salt, preparation method and use thereof” (BOE Technology Group Co., Ltd., priority 2018, dated 2021):
Like-named read-outs stand apart in the source and are kept apart here. Starred links: 1 amine or outer side, 2 acyl side, 3 side chain; linkers in the order of their positions; H or OH if unused. Non-standard residues stand in square brackets, D forms with d. Residues, ends and D or L forms follow the SMILES beside them. X2 = O=C(CN(CCc1ccc(-c2ccccc2)cc1)[*:1])[*:2]; Gly(N-piperonyl) = O=C(O)CNCc1ccc2c(c1)OCO2; X1 = CC(c1ccccc1)N(CC(=O)[*:2])[*:1]; Gly(N-2-aminoethyl) = NCCNCC(=O)O; Nleu = CC(C)CNCC(=O)O; Nlys = NCCCCNCC(=O)O

What was measured:
[1] = molecular target: T1, Her2 protein in the serum (Homo sapiens, UniProt P04626); assay: Detection of serum signals of breast cancer patients and normal persons by SPRi with the peptoid probe chip; assay type: binding; settings: serum diluted 1:5000; probe concentrations 80 μM, 400 μM, 2 mM, 10 mM, 50 mM; FIG. 3
T1 construct: introducing the serum of the patient with breast cancer and the normal person (diluted 1:5000 in volume); from tissue; host or cells: human serum (breast cancer patients with high Her2 expression, and normal persons)
Procedure: (§1) The SPRi apparatus described in the following examples was Plexera Kx5V2, Plexera Bioscience LLC, USA; and phosphate buffer saline (PBS), phosphoric acid, and proteinase K were prepared according to the product instruction manual.
Unless otherwise indicated, “patients with breast cancer” herein refers to patients with breast cancer having a high Her2 expression.
The specific steps for testing the detection of the peptoid compound of Preparation Example 1 or the peptoid Derivative of Preparation Example 2 for the blood of the patients with breast cancer by surface plasmon resonance imaging techniques are shown as follows:
(1) in the same manner as in Experimental Example 1, preparing the same 3D chip as in Experimental Example 1, mounting the chip on the SPRi instrument, measuring SPRi angle and adjusting it to the optimal optical position, in which relevant detection points including sample points and blank points are selected in the detection area, and the experimental flow rate is set to 2 μL/s; […]

Her2 protein = molecular target: T2, Her2 protein (Homo sapiens, UniProt P04626); assay: Binding ability to Her2 protein by surface plasmon resonance imaging (SPRi)
T2 construct: purchased Sigma (USA)
Procedure: as §1
Unless otherwise indicated, “Her2 protein” herein refers to the full-length Her2 protein.
The specific steps for testing the binding ability of the peptoid compound of Preparation Example 1 or the peptoid Derivative of Preparation Example 2 to the Her2 protein by surface plasmon resonance imaging techniques are shown as follows:
(1) dissolving the peptoid compound of Preparation Example 1 or the peptoid derivative of Preparation Example 2 into ddH2O at a concentration of 1 to 1000 μM to prepare a peptoid compound molecular probe sample to be spotted at a gradient concentration of 1-1000 μM;
(2) spotting the above peptoid compound molecular probe sample on a surface of a 3D chip (PlexArray HT, Plexera Bioscience, USA), in which each sample is repeated for 3 points, incubated at 4° C. for 12 hours, and washed by 10×PBS, 1×PBS and ultrapure water in sequence. The chip was then blocked with 1 M of aminoethanol hydrochloride for 30 minutes, then washed 5 times with ultrapure water, and finally dried with clean nitrogen; […]

T2 sequence (P04626 23-1255): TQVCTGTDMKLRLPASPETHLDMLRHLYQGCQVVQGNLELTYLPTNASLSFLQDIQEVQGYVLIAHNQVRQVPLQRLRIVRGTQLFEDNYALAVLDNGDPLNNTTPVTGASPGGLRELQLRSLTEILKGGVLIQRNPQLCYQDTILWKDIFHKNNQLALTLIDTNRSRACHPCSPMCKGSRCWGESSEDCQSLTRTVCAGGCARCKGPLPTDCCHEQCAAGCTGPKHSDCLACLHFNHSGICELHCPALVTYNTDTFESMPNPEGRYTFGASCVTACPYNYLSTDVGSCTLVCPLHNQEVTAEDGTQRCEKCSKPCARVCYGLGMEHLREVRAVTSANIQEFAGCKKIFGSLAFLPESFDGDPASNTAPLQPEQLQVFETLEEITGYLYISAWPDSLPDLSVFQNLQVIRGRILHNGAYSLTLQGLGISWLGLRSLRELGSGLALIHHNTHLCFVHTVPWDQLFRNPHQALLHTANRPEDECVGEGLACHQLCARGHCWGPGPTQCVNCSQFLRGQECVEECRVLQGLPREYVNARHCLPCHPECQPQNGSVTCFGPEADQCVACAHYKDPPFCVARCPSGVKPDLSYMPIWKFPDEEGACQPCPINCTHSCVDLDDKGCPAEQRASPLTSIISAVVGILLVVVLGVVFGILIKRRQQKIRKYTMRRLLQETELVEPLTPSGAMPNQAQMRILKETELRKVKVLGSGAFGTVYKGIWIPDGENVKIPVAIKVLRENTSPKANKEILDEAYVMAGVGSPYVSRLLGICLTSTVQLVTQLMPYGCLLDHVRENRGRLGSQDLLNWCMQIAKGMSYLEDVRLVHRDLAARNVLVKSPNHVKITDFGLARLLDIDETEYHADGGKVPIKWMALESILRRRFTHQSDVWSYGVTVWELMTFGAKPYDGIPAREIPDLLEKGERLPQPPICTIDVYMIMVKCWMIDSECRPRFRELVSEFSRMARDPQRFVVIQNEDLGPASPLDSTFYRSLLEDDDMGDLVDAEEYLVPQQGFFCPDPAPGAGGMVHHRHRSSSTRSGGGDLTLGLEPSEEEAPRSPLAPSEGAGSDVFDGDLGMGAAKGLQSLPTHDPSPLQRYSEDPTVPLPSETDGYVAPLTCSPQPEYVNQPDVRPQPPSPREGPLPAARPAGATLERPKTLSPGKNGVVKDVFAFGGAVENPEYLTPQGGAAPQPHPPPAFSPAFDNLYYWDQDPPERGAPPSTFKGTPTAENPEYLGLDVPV
T1 sequence (P04626 23-647 limits assumed): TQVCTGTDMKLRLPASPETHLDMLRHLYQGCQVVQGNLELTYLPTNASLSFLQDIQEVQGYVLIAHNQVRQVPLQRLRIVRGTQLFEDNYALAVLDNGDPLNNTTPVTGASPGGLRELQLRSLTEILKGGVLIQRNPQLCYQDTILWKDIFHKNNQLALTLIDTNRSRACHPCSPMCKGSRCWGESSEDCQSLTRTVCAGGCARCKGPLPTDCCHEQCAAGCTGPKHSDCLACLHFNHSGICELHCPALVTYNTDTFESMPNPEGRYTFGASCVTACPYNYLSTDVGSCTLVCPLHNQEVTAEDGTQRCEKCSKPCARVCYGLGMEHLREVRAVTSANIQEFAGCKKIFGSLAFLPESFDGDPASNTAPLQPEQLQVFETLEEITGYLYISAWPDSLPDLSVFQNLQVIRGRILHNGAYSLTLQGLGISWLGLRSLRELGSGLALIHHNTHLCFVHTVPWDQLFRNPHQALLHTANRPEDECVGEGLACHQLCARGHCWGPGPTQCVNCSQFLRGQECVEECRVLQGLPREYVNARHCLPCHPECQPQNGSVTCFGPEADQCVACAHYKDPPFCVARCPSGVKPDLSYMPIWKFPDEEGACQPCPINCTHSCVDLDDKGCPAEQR

For `CC(C)CN(CC(=O)N(CCCCN)CC(=O)N(CC(=O)N(CCCCN)CC(=O)N(CCCCN)CC(=O)N(CCN)CC(=O)N(CCc1ccc(-c2ccccc2)cc1)CC(N)=O)Cc1ccc2c(c1)OCO2)C(=O)CN(C(=O)CNCCCCN)C(C)c1ccccc1` (stereo not drawn) [Preparation Example 1] (H-[Nlys][X1][Nleu][Nlys][Gly(N-piperonyl)][Nlys][Nlys][Gly(N-2-aminoethyl)][X2]-NH2), the “distinction of serum samples of breast cancer patients from normal persons (ΔAU signal)” value [1] was “clearly distinguish the serum samples of the patients with breast cancer”, the Kd (Her2 protein; probe spotted on 3D chip, Her2 at 2.632, 1.316, 0.658, 0.329 μM, fitted with BIAevalution 4.1, read-out: equilibrium dissociation constant KD) was 0.0618 µM and the Kd (Her2 protein; read-out: equilibrium dissociation constant KD in the binding kinetic constant with Her2 (order of magnitude)) was roughly 0.01 µM.
